We go through 5 compounds from US10765648B2, “iNKT cell modulators and methods of using the same” (LUDWIG INSTITUTE FOR CANCER RESEARCH, priority 2011, dated 2020).

The subject of one experiment is human dendritic cells. Description: Lysis of monocyte-derived dendritic cells cultured with human iNKT cells and lipid, PI staining. The format is cell-based. As to conditions: 40 hours; for dendritic cell killing: various concentrations. Here is the method:
Monocyte-derived dendritic cells and human iNKT cells were cultured with various concentrations of each lipid for 40 hours and then PI stained to determine percent dendritic cell lysis (and percent survival).

The next experiment concerns iNKT cells. The experiment in a line: In vivo anergy of iNKT cells after lipid preconditioning. Details: species or system mice. The following applies: for iNKT cell anergy (IFNγ 18 h after OVA and alphaGalCer at day zero): preconditioned with 100 ng lipid at day −28. The protocol: The following experiment was designed to assess the in vivo anergy of iNKT cells as defined by their ability to enhance antigen-specific T- and B-cell responses. Mice were pre-conditioned at day −28 with individual lipids shown in FIG. 12 (100 ng i.v. of either alphaGalCer, IMM47, IMM60, or IMM70). Eighteen hours later, mice were bled to assess iNKT cell activation, as defined by IFN-gamma (determined by ELISA(eBioscience)), results shown in FIG. 13. At day zero (28 days after lipid preconditioning), expression of the iNKT cell activation marker PD1 was measured in splenic iNKT cells (FIG. 14).
Eighteen hours later, iNKT cell activation was analyzed by IFNγ expression by ELISA (FIG. 15). At day 7, T cell responses were analyzed (FIG. 16).

The target of a further experiment is T1, iNKT cell TCR (Homo sapiens, UniProt P15813).
T1 sequence (P15813 20-301 limits assumed): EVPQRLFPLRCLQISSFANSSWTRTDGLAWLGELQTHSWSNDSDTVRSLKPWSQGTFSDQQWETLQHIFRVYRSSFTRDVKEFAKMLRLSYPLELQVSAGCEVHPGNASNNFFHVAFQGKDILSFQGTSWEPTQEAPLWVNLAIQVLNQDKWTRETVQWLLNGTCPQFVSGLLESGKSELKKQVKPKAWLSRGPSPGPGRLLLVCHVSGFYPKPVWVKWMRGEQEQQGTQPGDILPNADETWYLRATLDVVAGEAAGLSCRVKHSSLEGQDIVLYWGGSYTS
As to conditions: cited from earlier work.

The target of experiment [1] is T2, human iNKT cell TCRs for hCD1d loaded with lipid (Homo sapiens, UniProt P15813).
T2 construct: made in house
T2 sequence (P15813 20-301 limits assumed): T1 sequence (P15813 20-301 limits assumed)
The experiment in a line: SPR of soluble human iNKT TCR binding to hCD1d-lipid complexes. An excerpt:
The binding kinetics of these ThrCer and α-GalCer analogue compounds were examined. To this end, bacterially-expressed hCD1d and β-2-microglobulin (β 2 M) molecules were refolded with the thioamide, and carbamate analogues of both α-GalCer and ThrCer by oxidative refolding chromatography, and then biotinylated. The urea analogues of α-GalCer and ThrCer could not be refolded, and therefore, no surface plasmon resonance (SPR) data are available for these molecules. Soluble human iNKT TCR was prepared. SPR experiments were used to measure the affinity and kinetics of human iNKT cell TCRs for hCD1d loaded with α-GalCer, ThrCer, and their thioamide and carbamate analogues (FIGS. 5A-5B). To this end, increasing concentrations of TCR were injected for 5 seconds over the indicated complex immobilized on the BIAcore chip until the specific binding reached its plateau. Kd and Bmax were calculated by fitting the data using non-linear regression binding kinetics model (FIGS. 5A-5B). Kinetic measurements for the koff were calculated using BIAevaluation software kit; kon values were calculated from the experimental koff and Kd.
Protein expression and purification: hCD1d and β2m were refolded with α-GalCer, IMM47, IMM60, IMM70 or IMM80 by oxidative chromatography. In summary, CD1d and β2m were overexpressed in E. coli BL21 using a prokaryotic expression system (Novagen, UK). […]

The test system of experiment [2] is EG7 cells (EL4 cells transfected with full length ovalbumin). Description: EG7 tumor regression in mice immunized with OVA plus lipid. The class given is in vivo. As to conditions: 800 μg OVA plus lipid four days after 1×10^6 EG7 cells. The protocol: Mice were injected with 1×10^6 EG7 cells (EL4 cells transfected with full length ovalbumin).

With `CCCCCCCCCCCCCCCCCCCCCCCCCC(=O)N[C@H](CO[C@H]1CCC[C@H](O)[C@H](O)[C@H]1O)[C@@H](O)[C@@H](O)CCCCCCCCCCCCCC` [IMM70, N-((2R,3R,4S)-3,4-dihydroxy-1-(((1S,2R,3S,4S)-2,3,4-trihydroxycycloheptyl)oxy)octadecan-2-yl)hexacosanamide], the “percentage of DC lysis” value with human dendritic cells (concentrations lower than 5 ng/ml) is reported as “very similar to the results obtained with IMM47”. The T-cell response entry in the experiment with iNKT cells (day 7 after immunization of preconditioned mice) was “highest T-cell response”. In addition, the “iNKT cell anergy (IFNγ 18 h after OVA and alphaGalCer at day zero)” value (shortened to “iNKT cell anergy”) in the experiment with iNKT cells was “functional iNKT cells”.
Consider `CCCCCCCCCCCCCCCCCCCCCCCC(=O)NC(COC1OC(CO)C(O)C(O)C1O)C(O)C(O)CCCCC` (stereo not shown) [OCH9 12], for which, at iNKT cell TCR (OCH9 on CD1d), the Kd (commonly a measure of binding affinity in units of concentration) was 123 ± 9.08 µM; the “k0 (on rate)” value was 23000 ± 1000 M⁻¹ s⁻¹; the koff – broadly, the rate constant with which the complex falls apart – is 2.67 ± 0.12 s⁻¹. The “interaction with iNKT cell TCRs” value on iNKT cell TCR (recent study, versus α-GalCer) is recorded as “weaker interactions than α-GalCer”.
With `CCCCCCCCCCCCCCCCCCCCCCCCCC(=O)N[C@@H](COC[C@H](O)[C@@H](O)CO)[C@H](O)[C@H](O)CCCCCCCCCCCCCC` [ThrCer 2, threitolceramide], in the experiment with human dendritic cells, the dendritic cell killing result was “lowest dendritic cell killing”. In the experiment with iNKT cells, the “iNKT cell anergy” value is listed as “weakest iNKT cell anergy”.
With `CCCCCCCCCCCCCCCCCCCCCCCCCC(=O)N[C@@H](CO[C@H]1O[C@H](CO)[C@H](O)[C@H](O)[C@H]1O)[C@H](O)[C@H](O)CCCCCCCCCCCCCC` [α-GalCer 1, α-galactosylceramide], the kon (in general, a measure of how fast the partners come together) in experiment [1] (calculated from experimental koff and Kd) is 2580 ± 90 M⁻¹ s⁻¹. In addition, the off-rate constant (koff) in experiment [1] (lipid on CD1d, read-out: experimental koff) is 0.565 ± 0.008 s⁻¹. Besides, the “iNKT cell anergy” value with iNKT cells is recorded as “highest iNKT cell anergy”.
Consider `CCCCCCCCCCCCCCCCCCCCCCCCCC(=O)N[C@H](CO[C@H]1CC[C@H](O)[C@H](O)[C@H]1O)[C@@H](O)[C@@H](O)CCCCCCCCCCCCCC` [IMM60, N-((2R,3R,4S)-3,4-dihydroxy-1-(((1S,2R,3S,4S)-2,3,4-trihydroxycyclohexyl)oxy)octadecan-2-yl)hexacosanamide], for which the dendritic cell killing entry in the experiment on human dendritic cells is reported as “highest dendritic cell killing”. Besides, the “regression of established tumour” value in experiment [2] is recorded as “induced regression of the established tumour”. The “iNKT cell activation (IFN-gamma at 18 h, PD1 at 28 days)” value in the experiment with iNKT cells (100 ng i.v. preconditioning at day −28) is recorded as “stronger iNKT cell activation than IMM47, IMM70, or even alphaGalCer”. Moreover, the “iNKT cell anergy” value in the experiment with iNKT cells was “highest iNKT cell anergy”.
